Source: patent US10766855B2, “Hydroxamate triterpenoid derivatives” (VIVACELL BIOTECHNOLOGY ESPANA S.L., priority 2016, dated 2020)

Tests used:
[1] = tested on: 3NP-lesioned mice; assay: 3-NP induced Huntington's disease model in mice; type: in vivo, mouse
Method: Striatal neurodegeneration was induced in 16-week-old C57BL/6 male mice (Harlan Ibérica, Barcelona, Spain) by six intraperitoneal (i.p.) injections of 3-nitropropionic acid (3NP) (30 mg/kg; one injection each every 12 h prepared in PBS). 3NP-treated animals and the non-lesioned control group (injected with PBS) were used for pharmacological studies with Betulinic acid (30 mg/Kg) and compound VII (30 mg/Kg). Treatments consisted of 5 i.p. injections every 24 h with […] the test compounds or vehicle (10% DMSO plus 6.2% Tween 20 in saline buffer), with the first injection 24 h prior the first 3NP injection and the rest of doses 30 min before the injections of 3NP. Mice were subjected to behavioral tests for determining their neurological status. General locomotor activity, the hindlimb clasping and dystonia, and the truncal dystonia were evaluated. All behavioral tests were conducted prior to drug injections to avoid acute effects of the compounds under investigation. […] were euthanized 12 h after the last injection of 3NP. Once euthanized, animals were dissected and their brains were rapidly removed. The right hemisphere was used to dissect the striatum, which was quickly frozen in RNAlater (Sigma-Aldrich, Germany) to analyzed inflammatory markers were by Real Time PCR. The left hemisphere was fixed in fresh 4% paraformaldehyde (in 0.1M phosphate buffered-saline) for 48 hours at 4° C. and embedded in paraffin wax for histological analysis.
For this test, intoxicated mice with 3-Nitropropionic acid (3-NP) were used for determining microglia activation and astrogliosis including a Control with non-intoxicated mice (3NP, 3NP+BA and 3NP+Compound VII). Iba-1 and glial fibrillary acidic protein (GFAP) expression were determined by immunostaining of brain sections through the different group of mice. Quantification of the different markers was performed with Image J software.
Total RNA was isolated from striata (3NP model) using RNeasy Lipid Tissue Mini Kit (Qiagen, GmbH). The total amount of RNA extracted was quantitated by spectrometry at 260 nm and its purity from the ratio between the absorbance values at 260 and 280 nm. Genomic DNA was removed to eliminate DNA contamination. Single-stranded complementary DNA was synthesized from up to 1 μg of total RNA (pool from at least 3 animals per group) using iScript™ cDNA Synthesis Kit (Bio-Rad, Hercules, Calif., USA). The reaction mixture was kept frozen at −20° C. until enzymatic amplification. The iQ™ SYBR Green Supermix (Bio-Rad) was used to quantify mRNA levels for COX-2, IL-6, IL-1β, and iNOS. […] Expression levels were calculated using the 2^−ΔΔCt method.

[2] = tested on: HIF-1α; assay: HIF-1α transactivation assay in NIH-3T3-EPO-Luc fibroblast cells; type: cell-based; conditions: 6 h stimulation
Method: To investigate the biological activities of the different compounds, HIF-1α transactivation assays were performed either in NIH-3T3-EPO-Luc cells (Table II) or in HaCaT-EPO-luc cells (FIG. 2). The NIH3T3-EPO-luc and HaCaT-EPO-luc cells have been stably transfected with the plasmid Epo-Luc plasmid. The EPO-Hypoxia Response Element (HRE)-luciferase reporter plasmid contains three copies of the HRE consensus sequence from the promoter of the erythropoietin gene fused to the luciferase gene. NIH3T3-EPO-luc cells were maintained at 37° C. in a humidified atmosphere containing 5% CO2 in DMEM supplemented with 10% fetal calf serum (FBS), and 1% (v/v) penicillin/streptomycin. DFX was purchased from Sigma-Aldrich (USA). Cells (1×10^4/well in 96 well plates) were seeded the day before the assay. […] After six hours of stimulation the cells were lysed in 25 mM Tris-phosphate pH 7.8, 8 mM MgCl2, 1 mM DTT, 1% Triton X-100, and 7% glycerol during 15 min at RT in a horizontal shaker. Luciferase activity is measured using a microplate luminometer (Berthold) following the instructions of the luciferase assay kit (Promega, Madison, Wis., USA).

C=C(C)[C@@H]1CC[C@]2(C(=O)NO)CC[C@]3(C)[C@H](CC[C@@H]4[C@@]5(C)CC[C@H](O)C(C)(C)[C@@H]5CC[C@]43C)[C@@H]12 [Compound VII, (3β) 3-Hydroxy-N-hydroxy-lup-20(29)-en-28-amide]
mRNA expression for COX-2, IL-1β, IL-6 and iNOS in striatum ([1]; 30 mg/kg, compared with 3NP+Vehicle): down regulated
clinical symptoms (behavioral score) induced by 3-NP intoxication ([1]; i.p., 30 mg/kg): clearly alleviated the clinical symptoms
reduction in Nissl-stained cells (neuronal death) in striatum caused by 3NP ([1]; i.p., 30 mg/kg): clearly prevented
3NP-induced microgliosis (Iba1) and astrogliosis (GFAP) ([1]; i.p., immunohistochemistry): reduced 3NP-induced microgliosis and astrogliosis
Efficacy HIF-1α (IRA coefficient) ([2]; relative to 150 μM DFX): 0.36
EC50 ([2]; Fibroblast, read-out: Potency EC50 HIF-1α): 4.81 µM
